≈ marks a conversion by molar mass, not a printed value.
Columns and labels:
C. albicans = assay: Antibiotic activity, MIC; conditions: Candida albicans
P. aerug = assay: Antibiotic activity, MIC
S. aureus = assay: Antibiotic activity, MIC; type: cell-based; conditions: Staphylococcus aureus
E. coli = assay: Antibiotic activity, MIC; type: cell-based; conditions: Escherichia coli
[1] = test system: Stage 59-60 Xenopus tadpoles; assay: Xenopus tadpole assay; type: in vivo, Xenopus laevis; conditions: 10 μg/ml in water
Description: A newly developed assay employing tadpoles, preferably Xenopus laevis Stages 59-60, were employed to study the effect of a compound by monitoring capillary occlusion in the tadpole's tail. […] The compounds of the invention affect the shape, viability and integrity of the embryonic tissues while not affecting the adult tissues, providing a powerful, highly specific screen. For example, substances that destroy all of the animal's epithelium, both adult and embryonic, could be regarded as toxic.
In this assay, tadpoles are introduced into Petri dishes containing a solution of the test compound in distilled water, preferably about 100 ml. The preferred concentration of the test compound is from about 1 μg/ml to about 10 μg/ml. The volume of liquid is sufficient for the animal to swim freely and drink from the solution. Thus, the effect observed results from oral absorption and subsequent systemic distribution of the agent. If the volume of liquid is not sufficient to permit oral intake, the effects that are observed would result from absorption through the surface epithelium. Thus, this simple assay can identify if an compound has characteristics of oral availability.
After an amount of time, typically about 60 minutes, the occlusion of blood flow through capillaries in the tadpole's tail are observed under an inverted microscope at a magnification of roughly 100×.
The tadpole assay described above provides an advantageous way to determine the pharmacological targets of each steroid when introduced into a mammal, and to determine pharmacological categories into which synthetic compounds belong. In the assay, each of the steroids was dissolved in 100 ml of distilled water at a concentration of 10 μg/ml. Stage 59-60 Xenopus tadpoles were introduced and evaluated by light microscopy and gross observation 1 hour later.

[2] = test system: vitelline capillaries of 3- to 5-day chick embryo; assay: Chick embryo vitelline capillary regression assay; type: in vivo; parameters: key to Vascular reactivity (capillary regression): + = Vascular reactivity; 0 = No vascular reactivity; +/− = Equivocal reactivity; conditions: 60 minutes
Procedure: Using the chick embryo vitelline capillaries assay, compounds were tested for their ability to induce capillary regression. Each compound was applied in 0.1 ml of 15% Ficol 400 and PBS onto the embryo, and vascular regression was assessed after 60 minutes.
The 3-day chick embryo consists of an embryonic disc from which numerous vessels emerge and return, forming a “figure 8”-shaped structure—the embryo in the center with vascular loops extending outward over both poles. […] Following a lag period of around 15 minutes, the constriction of continuity between capillary and secondary vessels, generally on the “venous” side, was observed. Continued pulsatile blood flow progressed, resulting in a “swelling” of the blind tube, followed by a pinching off of the remaining connection and formation of an enclosed vascular sac resembling a “blood island.” This process progressed until only the largest vessels remained intact.

[3] = test system: human microvascular cells; assay: Endothelial cord formation assay; type: cell-based; note: key: + = Inhibition of angiogenesis; − = No inhibition of angiogenesis; T = Toxic; *= cell rounding @ 10 µg/ml
Description: Endothelial cells have the capacity in vitro to form tubular aggregates resembling capillaries in various early stages of formation. This conversion occurs under relatively specific conditions, in which essential growth factors along with an effective substratum are provided. It has been shown that both the interaction of growth factors with the endothelial cell and its attachment to a substratum activate the NHE. The activation of this exchanger is believed to be required for subsequent morphologic transformation of the endothelial cell into a multicellular tubular structure.
To assess the effect of compounds on the cord-like structures formed by human microvascular cells when plated in the presence of VGEF (Vascular Endothelial Growth Factor) and basic fibroblast growth factor on a collagen matrix, a standard cord formation assay was used.

Row | Structure (SMILES) | MIC (C. albicans) [µg/mL] | MIC (P. aerug) [µg/mL] | MIC (S. aureus) [µg/mL] | MIC (E. coli) [µg/mL] | also measured
1 | COC(=O)CCC(C)[C@H]1CCC2C3C(CC[C@@]21C)[C@@]1(C)CC[C@@H](NCCCNCCCCN)C[C@@H]1C[C@H]3O (stereo partly drawn) | 32 (≈ 59.9 µM) | 64 (≈ 120 µM) | 4 (≈ 7.49 µM) | 64 (≈ 120 µM) | 
2 | CC(C)C(O)CCC(C)[C@H]1CCC2C3C(CC[C@@]21C)[C@@]1(C)CC[C@H](NCCCNCCCCN(C)C)C[C@@H]1C[C@H]3O (stereo partly drawn) | 64 (≈ 111 µM) | 128 (≈ 222 µM) | 8 to 16 (≈ 13.9 to 27.8 µM) | 64 (≈ 111 µM) | 
3 | COC(=O)CCC(C)[C@H]1CCC2C3C(CC[C@@]21C)[C@@]1(C)CC[C@H](NCCCNCCCCN)C[C@@H]1C[C@H]3O (stereo partly drawn) | 32 (≈ 59.9 µM) | 64 (≈ 120 µM) | 4 to 8 (≈ 7.49 to 15 µM) | 32 (≈ 59.9 µM) | 
4 | CC(COS(=O)(=O)O)C(=O)CCC(C)[C@H]1CCC2C3C(CC[C@@]21C)[C@@]1(C)CC[C@H](NCCCNCCCCN)C[C@@H]1C[C@H]3O (stereo partly drawn) [drawing 63] | 32 (≈ 49.8 µM) | 128 (≈ 199 µM) | 8 (≈ 12.5 µM) | 128 (≈ 199 µM) | 
5 | CC(CCC(=O)O)[C@H]1CCC2C3CC[C@H]4C[C@@H](NCCCNCCCCN)CC[C@]4(C)C3CC[C@@]21C (stereo partly drawn) | 8 (≈ 15.9 µM) | 32 (≈ 63.5 µM) | 64 (≈ 127 µM) | 32 to 64 (≈ 63.5 to 127 µM) | 
6 | CC(C)CCCC(C)[C@H]1CCC2C3C(CC[C@@]21C)[C@@]1(C)CC[C@H](NCCCNCCCCN)C[C@@H]1C[C@H]3O (stereo partly drawn) [Compound 371] |  |  |  |  | Pharmacological category in tadpole assay (similarity to a reference steroid) [1]: effects like those produced by compound 1436; Vascular reactivity (capillary regression) ([2]; 0.001 μg applied): 0; Vascular reactivity (capillary regression) ([2]; 0.01 μg applied): 0; Vascular reactivity (capillary regression) ([2]; 0.1 μg applied): 0; Vascular reactivity (capillary regression) ([2]; 1 μg applied): +/−; Vascular reactivity (capillary regression) ([2]; 10 μg applied): +
7 | C[C@@H](O)C1CCC2C3CC[C@H]4C[C@@H](NCCCNCCCCN)CC[C@]4(C)C3CC[C@@]21C (stereo partly drawn) | 64 (≈ 143 µM) | 256 (≈ 572 µM) | 4 (≈ 8.93 µM) | 32 to 64 (≈ 71.5 to 143 µM) | 
8 | CC(CCC(=O)O)[C@H]1CCC2C3C(CC[C@@]21C)[C@@]1(C)CC[C@H](NCCCNCCCCNCCCN)C[C@H]1C[C@H]3O (stereo partly drawn) [Compound 413] |  |  |  |  | Pharmacological category in tadpole assay (similarity to a reference steroid) [1]: effects like those produced by compound 1436; Vascular reactivity (capillary regression) ([2]; 1 μg applied): 0; Effect on endothelial cord formation ([3]; 0.1 μg/ml): −; Effect on endothelial cord formation ([3]; 1.0 μg/ml): −; Effect on endothelial cord formation ([3]; 10.0 μg/ml): +
9 | C[C@@H](O)C1CCC2C3CC[C@H]4C[C@H](NCCCNCCCCN)CC[C@]4(C)C3CC[C@@]21C (stereo partly drawn) | 128 (≈ 286 µM) | 128 (≈ 286 µM) | 16 (≈ 35.7 µM) | 64 (≈ 143 µM) | 
10 | CC(C)CCCC(C)[C@H]1CCC2C3CC[C@H]4C[C@H](NCCCNCCCCN)CC[C@]4(C)C3CC[C@@]21C (stereo partly drawn) | 128 (≈ 248 µM) | 128 (≈ 248 µM) | 2 to 4 (≈ 3.88 to 7.75 µM) | 128 (≈ 248 µM) | 
11 | CC(C)C(O)CCC(C)[C@H]1CCC2C3C(CC[C@@]21C)[C@@]1(C)CC[C@@H](NCCCNCCCCN)C[C@@H]1C[C@H]3O (stereo partly drawn) | 64 (≈ 117 µM) | 256 (≈ 467 µM) | 16 to 32 (≈ 29.2 to 58.4 µM) | 128 (≈ 234 µM) | 
12 | CC(C)CCCC(C)[C@H]1CCC2C3CC[C@H]4C[C@H](NCCCN5CCCCN=C5N)CC[C@]4(C)C3CC[C@@]21C (stereo partly drawn) | 32 (≈ 59.2 µM) | > 256 | 2 (≈ 3.7 µM) | > 256 | 
13 | COC(=O)CCC(C)[C@H]1CCC2C3C(CC[C@@]21C)[C@@]1(C)CC[C@@H](NCCN)C[C@H]1C[C@H]3O (stereo partly drawn) [Compound 410] |  |  |  |  | Pharmacological category in tadpole assay (similarity to a reference steroid) [1]: functionally similar to compound 1437; Vascular reactivity (capillary regression) ([2]; 0.001 μg applied): 0; Vascular reactivity (capillary regression) ([2]; 0.01 μg applied): +/−; Vascular reactivity (capillary regression) ([2]; 0.1 μg applied): +/−; Vascular reactivity (capillary regression) ([2]; 1 μg applied): +; Effect on endothelial cord formation ([3]; 0.1 μg/ml): −; Effect on endothelial cord formation ([3]; 1.0 μg/ml): +
14 | CC(C)C(CCC(C)[C@H]1CCC2C3C(CC[C@@]21C)[C@@]1(C)CC[C@@H](NCCCNCCCCN)C[C@@H]1C[C@H]3O)OS(=O)(=O)O (stereo partly drawn) | 16 (≈ 25.5 µM) | 16 (≈ 25.5 µM) | 2 to 4 (≈ 3.18 to 6.37 µM) | 4 to 8 (≈ 6.37 to 12.7 µM) | 
15 | CC(CCC(=O)O)[C@H]1CCC2C3CC[C@H]4C[C@H](NCCCNCCCCN)CC[C@]4(C)C3CC[C@@]21C (stereo partly drawn) | > 256 | 64 (≈ 127 µM) | 128 (≈ 254 µM) | 32 (≈ 63.5 µM) | 
16 | COC(O)CCC(C)[C@H]1CCC2C3C(CC[C@@]21C)[C@@]1(C)CC[C@H](NCCCNCCCCNCCCN)C[C@@H]1C[C@H]3O (stereo partly drawn) | 16 (≈ 27 µM) | 128 (≈ 216 µM) | 2 to 4 (≈ 3.37 to 6.75 µM) | 64 (≈ 108 µM) | 
17 | CC(C)CCCC(C)[C@H]1CCC2C3CC[C@H]4C[C@H](NCCCNCCCCNCCCN)CC[C@]4(C)C3CC[C@@]21C (stereo partly drawn) | 16 to 32 (≈ 27.9 to 55.8 µM) | 64 (≈ 112 µM) | 8 (≈ 14 µM) | 64 to 128 (≈ 112 to 223 µM) | 
18 | CC(C)CCCC(C)[C@H]1CCC2C3CC[C@H]4C[C@@H](NCCCNCCCCNCCCN)CC[C@]4(C)C3CC[C@@]21C (stereo partly drawn) [drawing 47] | 32 (≈ 55.8 µM) | 64 (≈ 112 µM) | 16 (≈ 27.9 µM) | 128 (≈ 223 µM) | 
19 | COC(=O)CCC(C)[C@H]1CCC2C3C(CC[C@@]21C)[C@@]1(C)CC[C@H](NCCN)C[C@H]1C[C@H]3O (stereo partly drawn) [Compound 409] |  |  |  |  | Pharmacological category in tadpole assay (similarity to a reference steroid) [1]: functionally similar to compound 1437; Vascular reactivity (capillary regression) ([2]; 1 μg applied): 0
20 | C=C(C)C(=O)CCC(C)[C@H]1CCC2C3C(CC[C@@]21C)[C@@]1(C)CC[C@H](NCCCNCCCCN)C[C@@H]1C[C@H]3O (stereo partly drawn) |  | 128 (≈ 235 µM) | 4 (≈ 7.35 µM) | 32 (≈ 58.8 µM) | 
21 | CC(C)CCCC(C)[C@H]1CCC2C3CC[C@H]4C[C@@H](NCCCNCCCCN)CC[C@]4(C)C3CC[C@@]21C (stereo partly drawn) | 256 (≈ 496 µM) | 128 (≈ 248 µM) | 8 (≈ 15.5 µM) | 128 to 256 (≈ 248 to 496 µM) | 
22 | CC(CC[C@@H](OS(=O)(=O)O)C(C)C)[C@H]1CCC2C3C(CC[C@@]21C)[C@@]1(C)CC[C@H](NCCCNCCCCN)C[C@@H]1C[C@H]3O (stereo partly drawn) [drawing 43] | 8 (≈ 12.7 µM) | 16 (≈ 25.5 µM) | 0.5 to 1 (≈ 0.796 to 1.59 µM) | 2 to 4 (≈ 3.18 to 6.37 µM) | 
23 | CC(C)CCCC(C)[C@H]1CCC2C3C(CC[C@@]21C)[C@@]1(C)CC[C@@H](N)C[C@@H]1C[C@H]3O (stereo partly drawn) |  | > 256 | 2 (≈ 4.95 µM) | > 256 | 
24 | COC(=O)CCC(C)[C@H]1CCC2C3CC[C@@H]4C[C@H](NCCN)CC[C@]4(C)C3C[C@H](O)[C@@]21C (stereo partly drawn) [Compound 416] |  |  |  |  | Pharmacological category in tadpole assay (similarity to a reference steroid) [1]: functionally similar to compound 1437
25 | COC(=O)CCC(C)[C@H]1CCC2C3C[C@@H](O)[C@H]4C[C@@H](NCCN)CC[C@]4(C)C3CC[C@@]21C (stereo partly drawn) [Compound 432] |  |  |  |  | Pharmacological category in tadpole assay (similarity to a reference steroid) [1]: functionally similar to compound 1437; Effect on endothelial cord formation ([3]; 1.0 μg/ml): −; Effect on endothelial cord formation ([3]; 10.0 μg/ml): −
26 | CC(CCC(=O)O)[C@H]1CCC2C3C(CC[C@@]21C)[C@@]1(C)CC[C@@H](NCCN)C[C@H]1C[C@H]3O (stereo partly drawn) [Compound 414] |  |  |  |  | Pharmacological category in tadpole assay (similarity to a reference steroid) [1]: pharmacologic activity similar to Fraction 1; Vascular reactivity (capillary regression) ([2]; 1 μg applied): 0
27 | CC(CCC(=O)O)[C@H]1CCC2C3C(CC[C@@]21C)[C@@]1(C)CC[C@@H](NCCCNCCCCNCCCN)C[C@H]1C[C@H]3O (stereo partly drawn) [Compound 412] |  |  |  |  | Pharmacological category in tadpole assay (similarity to a reference steroid) [1]: pharmacologic activity similar to that seen for FX 3; Vascular reactivity (capillary regression) ([2]; 0.001 μg applied): 0; Vascular reactivity (capillary regression) ([2]; 0.01 μg applied): 0; Vascular reactivity (capillary regression) ([2]; 0.1 μg applied): 0; Vascular reactivity (capillary regression) ([2]; 1 μg applied): +; Effect on endothelial cord formation ([3]; 0.1 μg/ml): −; Effect on endothelial cord formation ([3]; 1.0 μg/ml): −; Effect on endothelial cord formation ([3]; 10.0 μg/ml): +
